Assay: Hygroscopicity: moisture pick up of antiperspirant active in controlled relative humidity
Format: physicochemical
Conditions: at 86% RH, 5 days, 20° C.
Protocol: One way to evaluate the hygroscopic nature of an antiperspirant active is to determine the equilibrium moisture pick up of the active after 5 days in a controlled relative humidity environment. Specific humidity chambers can be created placing saturated salt solutions in desiccators at a specific temperature. Different salts are used to create different humidities, for example potassium chloride can be used to make an 86% relative humidity (RH) environment at 20° C. In general there is an increase in moisture pick up as humidity is increased for the antiperspirant actives shown, however there are clear differences in slope and amount of moisture pick up at high humidity. Materials with higher slope and larger increases at high humidity (i.e. 86% RH) are considered to be more hygroscopic. The aluminum zirconium trichlorohydrate active (metal to chloride ratio=1.6) from Inventive Example 1 is the least hygroscopic (28% moisture pick up at 86% RH) with the aluminum zirconium tetrachlorohydrate active (metal to chloride ratio=1.2) being substantially more hygroscopic (40% moisture pick up at 86% RH). […] This may explain the substantial difference observed in the amount of sweat measured between Inventive Examples 1 and 2. […]

Row | moisture pick up (hygroscopicity) [%] | Substance
1 | 40 | aluminum zirconium tetrachlorohydrate
2 | 28 | aluminum zirconium trichlorohydrate
